Test results reported in ChEMBL document CHEMBL1201862, “PubChem BioAssay data set” (2004).
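Each compound was tested at five concentrations against cells in 96-well plates for 48 hours. GI50 marks 50% less growth.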 The source made the active and inactive calls. No stated cut-off is given here; in the data, active = GI50 up to about 1.1 µM and inactive = higher.

What was measured:
Experiment in all cases: growth of human tumour cells (NCI), 48 h
HT-29 = tested on: HT-29
OVCAR-5 = tested on: OVCAR-5
SF-268 = tested on: SF-268
SR = tested on: SR
SNB-75 = tested on: SNB-75
U-251 = tested on: U-251
MOLT-4 = tested on: MOLT-4
EKVX = tested on: EKVX
NCI-H23 = tested on: NCI-H23
ACHN = tested on: ACHN
SNB-19 = tested on: SNB-19
DMS-273 = tested on: DMS-273
A549 = tested on: A549
COLO 205 = tested on: COLO 205
NCI-H226 = tested on: NCI-H226

Measured: GI50

C=CCN(C)CN(C)c1nc(N(C)C)nc(N(C)C)n1
inactive: HT-29 > 100 µM | OVCAR-5 > 100 µM | SF-268 > 100 µM | SR 49.2 µM | SNB-75 44.1 µM | U-251 > 100 µM | MOLT-4 > 100 µM | EKVX > 100 µM | NCI-H23 > 100 µM | ACHN > 100 µM | SNB-19 > 100 µM | DMS-273 22.3 µM | A549 > 100 µM | COLO 205 86.3 µM

Fc1cccc(C2SCc3nc4ccccc4n32)c1 (stereo not drawn)
inactive: HT-29 68.7 µM | OVCAR-5 17.3 µM | SF-268 75.3 µM | SR 35.6 µM | SNB-75 36.4 µM | MOLT-4 33.8 µM | NCI-H226 41.1 µM | EKVX 32.4 µM | NCI-H23 19.6 µM | ACHN 24.4 µM | SNB-19 75.5 µM | DMS-273 26.6 µM | A549 43.1 µM | COLO 205 71.4 µM

CN1NC(c2ccccc2)=C(C#N)C(=O)CC1c1ccccc1Cl (stereo not drawn)
inactive: HT-29 > 100 µM | OVCAR-5 > 100 µM | SF-268 > 100 µM | SR > 100 µM | SNB-75 86.3 µM | U-251 > 100 µM | MOLT-4 > 100 µM | NCI-H226 > 100 µM | NCI-H23 > 100 µM | ACHN > 100 µM | SNB-19 > 100 µM | DMS-273 > 100 µM | A549 > 100 µM | COLO 205 > 100 µM

Nc1nc(S)nc(C(=O)Nc2nccs2)c1-c1ccccc1
inactive: HT-29 > 100 µM | OVCAR-5 > 100 µM | SF-268 > 100 µM | SR > 100 µM | SNB-75 > 100 µM | U-251 > 100 µM | MOLT-4 > 100 µM | NCI-H226 > 100 µM | EKVX > 100 µM | NCI-H23 > 100 µM | ACHN > 100 µM | SNB-19 > 100 µM | DMS-273 > 100 µM | A549 > 100 µM | COLO 205 > 100 µM

O=Cc1ccc2c(c1I)OCO2
inactive: HT-29 > 100 µM | OVCAR-5 > 100 µM | SR > 100 µM | SNB-75 > 100 µM | U-251 > 100 µM | MOLT-4 > 100 µM | NCI-H226 > 100 µM | EKVX > 100 µM | NCI-H23 > 100 µM | ACHN > 100 µM | SNB-19 > 100 µM | DMS-273 > 100 µM | A549 > 100 µM | COLO 205 > 100 µM

COc1ccc(CN2CCC/C=C/CC(Cl)(Cl)C2=O)cc1
inactive: HT-29 35.8 µM | OVCAR-5 42.7 µM | SF-268 26.6 µM | SR 24.1 µM | SNB-75 15.1 µM | U-251 34.1 µM | MOLT-4 22.8 µM | NCI-H23 27.2 µM | ACHN 21 µM | SNB-19 25.2 µM | DMS-273 38.8 µM | A549 35 µM | COLO 205 20.4 µM

Cc1ccc2sc3cc(=O)cc(C)c-3nc2c1
inactive: HT-29 > 100 µM | OVCAR-5 > 100 µM | SF-268 47.2 µM | SR 28.8 µM | SNB-75 > 100 µM | U-251 32.7 µM | MOLT-4 15.7 µM | NCI-H226 > 100 µM | EKVX 38.6 µM | NCI-H23 45.3 µM | ACHN 29.2 µM | SNB-19 40.8 µM | DMS-273 43.3 µM | A549 36.7 µM | COLO 205 61.9 µM

O=C1c2ccccc2C(=O)N1C/C=N/NS(=O)(=O)c1ccc(Br)cc1
inactive: HT-29 > 100 µM | OVCAR-5 > 100 µM | SF-268 > 100 µM | SR > 100 µM | SNB-75 > 100 µM | U-251 > 100 µM | MOLT-4 > 100 µM | NCI-H226 > 100 µM | EKVX > 100 µM | NCI-H23 > 100 µM | ACHN > 100 µM | SNB-19 > 100 µM | DMS-273 > 100 µM | A549 > 100 µM | COLO 205 > 100 µM

Nc1c(-c2cn(Cc3ccccc3)c3ccccc23)[n+]([O-])c2ccccc2[n+]1[O-]
inactive: HT-29 27.2 µM | OVCAR-5 25.6 µM | SF-268 21.5 µM | SNB-75 16.4 µM | U-251 32.5 µM | MOLT-4 16.8 µM | NCI-H226 6.35 µM | EKVX 32.6 µM | NCI-H23 22 µM | ACHN 15.5 µM | SNB-19 36.6 µM | DMS-273 23.8 µM | A549 30.8 µM | COLO 205 35.3 µM

CC(=O)OC1CCn2nnc(CO)c21 (stereo not drawn)
inactive: HT-29 > 100 µM | OVCAR-5 > 100 µM | SR > 100 µM | SNB-75 23.8 µM | U-251 > 100 µM | MOLT-4 > 100 µM | NCI-H226 > 100 µM | EKVX > 100 µM | NCI-H23 > 100 µM | SNB-19 > 100 µM | DMS-273 > 100 µM | A549 > 100 µM | COLO 205 > 100 µM

COc1cc2c(oc(=O)c3c4oc([Si](C)(C)C)cc4cc(OC)c23)c2cccc(OCc3ccccc3)c12
inactive: HT-29 48.9 µM | OVCAR-5 > 70.3 µM | SF-268 26.5 µM | SR 37.7 µM | SNB-75 19.7 µM | MOLT-4 > 71.9 µM | NCI-H226 42.5 µM | EKVX > 66.5 µM | NCI-H23 16.3 µM | ACHN 51.4 µM | SNB-19 23.8 µM | DMS-273 25.3 µM | A549 44 µM | COLO 205 54.2 µM

O=c1[nH]c(=O)n(C2OC(CO)C(N(O)Cc3ccc(F)cc3)C2O)cc1Br (stereo not drawn)
inactive: HT-29 > 100 µM | OVCAR-5 > 100 µM | SF-268 > 100 µM | SR > 100 µM | SNB-75 > 100 µM | U-251 > 100 µM | MOLT-4 > 100 µM | EKVX > 100 µM | NCI-H23 > 100 µM | ACHN > 100 µM | SNB-19 > 100 µM | DMS-273 > 100 µM | A549 > 100 µM | COLO 205 > 100 µM

CCOC(=O)Cn1c(=O)[nH]c(=O)c2[nH]cnc21
inactive: HT-29 > 100 µM | OVCAR-5 > 100 µM | SF-268 > 100 µM | SR > 100 µM | SNB-75 > 100 µM | U-251 > 100 µM | MOLT-4 > 100 µM | EKVX > 100 µM | NCI-H23 > 100 µM | ACHN > 100 µM | SNB-19 > 100 µM | DMS-273 > 100 µM | A549 > 100 µM | COLO 205 > 100 µM

CS(=O)(=O)OCCCOS(C)(=O)=O
inactive: HT-29 > 100 µM | OVCAR-5 > 100 µM | SF-268 > 100 µM | SR > 100 µM | SNB-75 > 100 µM | U-251 > 100 µM | MOLT-4 > 100 µM | NCI-H226 > 100 µM | EKVX > 100 µM | NCI-H23 > 100 µM | ACHN > 100 µM | SNB-19 > 100 µM | DMS-273 > 100 µM | A549 > 100 µM | COLO 205 > 100 µM
